{"source": "patent US20170290814A1", "about": "“METHODS OF TREATMENT OF CHOLESTASIS AND FIBROSIS” (GENFIT, priority 2016, published 2017)"}
{"system": "TGFβ1-induced expression of α-SMA protein in human HSC", "test": "α-SMA ELISA in TGFβ1-activated human hepatic stellate cells", "type": "cell-based", "conditions": "[Cpd] = 3 μM, 1 h preincubation, TGFβ1 1 ng/ml, 48 h", "description": "Serum-deprived HSC were preincubated for 1 hour with RM-5061 before the activation with the profibrogenic cytokine TGFβ1 (1 ng/ml). After 48 hours of incubation, the α-SMA content was measured by ELISA. The obtained values were transformed into percentage inhibition over TGFβ1 control. Data are presented as mean (quadruplicates)±standard error of the mean (SEM). Statistical analyses were performed by one-way ANOVA followed by Bonferroni post-hoc tests, using Sigma Plot 11.0 software. [*: p<0.05; **: p<0.01; ***: p<0.001 (comparison versus TGFβ1 1 ng/mL group)]. The curve fitting and the calculation of half maximal inhibitory concentration (IC50) were performed with XLFit software 5.3.1.3.\nSerum-deprived HSC were preincubated for 1 hour with Cpd.5 before the activation with the profibrogenic cytokine TGFβ1 (1 ng/ml). After 48 hours of incubation, the expression of α-SMA was measured by ELISA. The obtained values were transformed into percentage inhibition over TGFβ1 control. Data are presented as mean (triplicates)±standard deviation (SD). Statistical analyses were performed by one-way ANOVA followed by Bonferroni post-hoc tests, using Sigma Plot 11.0 software. [*: p<0.05; **: p<0.01; ***: p<0.001 (comparison versus TGFμ1 1 ng/mL group)]. The curve fitting and the calculation of half maximal inhibitory concentration (IC50) were performed with XLFit software 5.3.1.3.\nThe human primary hepatic stellate cells (hHSC) (Innoprot) were cultured in STeCM medium (ScienCell cat #5301) that was supplemented with 2% fetal bovine serum (FBS, ScienCell cat #0010), 1% penicillin/streptomycin (ScienCell cat #0503) and stellate cell growth supplement (SteCGS; ScienCell cat #5352). Cell culture flasks were coated with Poly-L Lysine (Sigma cat #P4707) for a better adherence.\nThe human primary hepatic stellate cells (hHSC) (Innoprot) were cultured under standard conditions, as described above. The cells were subsequently plated at a density of 2×10^4cells/well or 6,5×10^3 cells/well into 96-well or 384-well plates respectively. The next day, cell-culture medium was removed, and cells were washed with PBS (Invitrogen cat #14190). Then, hHSC were deprived for 24 hours in serum-free and SteCGS-free medium. For the treatments with compounds of formula (I), the serum-deprived hHSC were preincubated for 1 hour with the compounds followed by addition of the profibrogenic stimuli TGFβ1 (PeproTech cat #100-21, 1 ng/mL) in serum-free and SteCGS-free medium for an additional 48 hour period. At the end of treatment, the cell culture supernatants of treated-HSC were transferred into a new plate before storage at −20° C.The cells were washed with PBS (Invitrogen, cat #14190) before the addition of lysis buffer (CelLytic™ MT reagent; Sigma #C3228). Plates were then incubated for 30 min on ice using a plate shaker, before storage at −20° C.\nThe level of α-SMA was measured using a Sandwich ELISA. Briefly, the wells of an ELISA plate were first coated with the capture antibody (mouse monoclonal anti-ACTA2, Abnova) at 4° C. overnight. After 3 washes in PBS +0.2% Tween 20, a blocking solution consisting of PBS +0.2% BSA was added for one hour followed by another washing cycle. The cell lysates were transferred into the wells for binding to the capture antibody for a period of 2 h at room temperature. After the washing procedure, the detection antibody (biotinylated mouse monoclonal anti-ACTA2, Abnova) was added for 2 hours at room temperature followed by 3 washes. For the detection, an HRP-conjugated Streptavidin (R&D Systems cat #DY998) was first applied for 30 min at room temperature. After washing, the HRP substrate TMB (;BD, #555214) was added and incubated for 7 min at room temperature in the dark. Upon oxidation, TMB forms a water-soluble blue reaction product that becomes yellow with addition of sulfuric acid (solution stop), enabling accurate measurement of the intensity at 450 nm using a spectrophotometer. […]", "units": {"% I over TGFβ (α-SMA)": "%"}}
{"smiles": "O=C(O)c1ccccc1-c1ccccc1C(=O)Nc1nc2ccccc2s1", "note": "[Cpd1, 2′-(benzo[d]thiazol-2-ylcarbamoyl)-[1,1′-biphenyl]-2-carboxylic acid]", "% I over TGFβ (α-SMA)": 40}
{"smiles": "COc1ccccc1C(=O)Nc1nc(-c2cccs2)c(NC(=O)c2ccccc2)s1", "note": "[Cpd2, N-(5-benzamido-4-(thiophen-2-yl)-1,3-thiazol-2-yl)-2-methoxybenzamide]", "% I over TGFβ (α-SMA)": 43}
{"smiles": "Cc1sc(NC(=O)c2c(F)cccc2F)nc1-c1ccccc1", "note": "[Cpd3, 2,6-difluoro-N-(5-methyl-4-phenyl-1,3-thiazol-2-yl)benzamide]", "% I over TGFβ (α-SMA)": 48}
{"smiles": "O=C(Nc1nc(-c2ccc3ccccc3c2)cs1)c1cc([N+](=O)[O-])ccc1Cl", "note": "[Cpd4, 2-chloro-N-[4-(2-naphthyl)-1,3-thiazol-2-yl]-5-nitrobenzamide]", "% I over TGFβ (α-SMA)": 53}
